Laboratory results taken from patent US10227344B2, “CK2 inhibitors, compositions and methods thereof” (Polaris Pharmaceuticals, Inc., priority 2016, dated 2019).

How the values were obtained:
Format in all cases: cell-based
[1] = system: H460; experiment: Cancer cell panel, cell viability (resazurin): NSCLC, H460; settings: 72 hours, labelled drug combined with Example 3
[2] = system: H23; experiment: Cancer cell panel, cell viability (resazurin): NSCLC, H23; settings: 72 hours, labelled drug combined with Example 3
[3] = system: HL60; experiment: Cancer cell panel, cell viability (resazurin): Leukemia, HL60; settings: 72 hours, labelled drug combined with Example 3
Experimental: (§1) Cells were plated in 96-well plates and treated for 72 hours with a serially diluted CK2 inhibitor or anti-cancer drug or their combination. The suspension cell lines were treated right after plating, while the adherent cells were allowed to attach overnight prior to the start of the treatment.
(§2) Cell viability was determined by adding resazurin to cell cultures and measuring fluorescence with a plate reader. Relative cell viability was calculated by dividing the cell viability signal from a test sample by that of a non-treated control. […] Bliss Independence and Highest Single Agent models were used to determine if there is synergy, additivity or antagonism between the CK2 inhibitor and an anti-cancer drug.

[4] = system: OVCAR-3; experiment: Cancer cell panel, cell viability (resazurin): Ovarian, OVCAR-3; settings: OVCAR-3 (Ovarian), 72 hours; labelled drug combined with Example 3
Experimental: as §1, §2

[5] = system: Colo205; experiment: Cancer cell panel, cell viability (resazurin): Colon, Colo205; settings: 72 hours, labelled drug combined with Example 3
[6] = system: MDA-MB-231; experiment: Cancer cell panel, cell viability (resazurin): Breast, MDA-MB-231; settings: MDA-MB-231 (Breast), 72 hours; labelled drug combined with Example 3
[7] = system: ZR-75-1; experiment: Cancer cell panel, cell viability (resazurin): Breast, ZR-75-1; settings: ZR-75-1 (Breast), 72 hours; labelled drug combined with Example 3
[8] = system: SK-MEL-24; experiment: Cancer cell panel, cell viability (resazurin): Melanoma, SK-MEL-24; settings: SK-MEL-24 (Melanoma), 72 hours; labelled drug combined with Example 3
[9] = system: Caov-3; experiment: Cancer cell panel, cell viability (resazurin): Ovarian, Caov-3; settings: Caov-3 (Ovarian), 72 hours; labelled drug combined with Example 3
[10] = system: Raji; experiment: Cancer cell panel, cell viability (resazurin): Burkitt's Lymphoma, Raji; settings: 72 hours, labelled drug combined with Example 3
Experimental: as §1, §2

[11] = system: EOL-1; experiment: Cancer cell panel, cell viability (resazurin): Leukemia, EOL-1; settings: EOL-1 (Leukemia), 72 hours; labelled drug combined with Example 3
[12] = system: RPMI8226; experiment: Cancer cell panel, cell viability (resazurin): multiple myeloma, RPMI8226; settings: 72 hours, labelled drug combined with Example 3
[13] = system: T47D; experiment: Cancer cell panel, cell viability (resazurin): Breast, T47D; settings: 72 hours, labelled drug combined with Example 3
[14] = system: A549; experiment: Cancer cell panel, cell viability (resazurin): NSCLC, A549; settings: 72 hours, labelled drug combined with Example 3
[15] = system: LoVo; experiment: Cancer cell panel, cell viability (resazurin): Colon, LoVo; settings: 72 hours, labelled drug combined with Example 3
[16] = system: HT29; experiment: Cancer cell panel, cell viability (resazurin): Colon, HT29; settings: 72 hours, labelled drug combined with Example 3
Experimental: as §1, §2

[17] = system: Ramos; experiment: Cancer cell panel, cell viability (resazurin): Burkitt's Lymphoma, Ramos; settings: 72 hours, labelled drug combined with Example 3
Experimental: as §1, §2

[18] = system: MOLT4; experiment: Cancer cell panel, cell viability (resazurin): Leukemia, MOLT4; settings: 72 hours, labelled drug combined with Example 3
[19] = system: Caki-1; experiment: Cancer cell panel, cell viability (resazurin): Renal, Caki-1; settings: Caki-1 (Renal), 72 hours; labelled drug combined with Example 3
Experimental: as §1, §2

[20] = system: BxPC3; experiment: Cancer cell panel, cell viability (resazurin): Pancreatic, BxPC3; settings: 72 hours, labelled drug combined with Example 3
[21] = system: SkBr-3; experiment: Cancer cell panel, cell viability (resazurin): Breast, SkBr-3; settings: SkBr-3 (Breast), 72 hours; labelled drug combined with Example 3
[22] = system: SKOV-3; experiment: Cancer cell panel, cell viability (resazurin): Ovarian, SKOV-3; settings: SKOV-3 (Ovarian), 72 hours; labelled drug combined with Example 3
Experimental: as §1, §2

[23] = system: BT-20; experiment: Cancer cell panel, cell viability (resazurin): Breast, BT-20; settings: BT-20 (Breast), 72 hours; labelled drug combined with Example 3
[24] = system: A2780; experiment: Cancer cell panel, cell viability (resazurin): Ovarian, A2780; settings: 72 hours, labelled drug combined with Example 3
Experimental: as §1, §2

[25] = system: SK-MEL-3; experiment: Cancer cell panel, cell viability (resazurin): Melanoma, SK-MEL-3; settings: SK-MEL-3 (Melanoma), 72 hours; labelled drug combined with Example 3
[26] = system: K562; experiment: Cancer cell panel, cell viability (resazurin): Leukemia, K562; settings: 72 hours, labelled drug combined with Example 3
[27] = system: U266; experiment: Cancer cell panel, cell viability (resazurin): multiple myeloma, U266; settings: 72 hours, labelled drug combined with Example 3
Experimental: as §1, §2

[28] = system: A375; experiment: Cancer cell panel, cell viability (resazurin): Melanoma, A375; settings: 72 hours, labelled drug combined with Example 3
Experimental: as §1, §2

[29] = system: H1975; experiment: Cancer cell panel, cell viability (resazurin): NSCLC, H1975; settings: 72 hours, labelled drug combined with Example 3
[30] = system: H1299; experiment: Cancer cell panel, cell viability (resazurin): NSCLC, H1299; settings: 72 hours, labelled drug combined with Example 3
[31] = system: Mia-Paca-2; experiment: Cancer cell panel, cell viability (resazurin): Pancreatic, Mia-Paca-2; settings: Mia-Paca-2 (Pancreatic), 72 hours; labelled drug combined with Example 3
Experimental: as §1, §2

[32] = system: Panc-1; experiment: Cancer cell panel, cell viability (resazurin): Pancreatic, Panc-1; settings: Panc-1 (Pancreatic), 72 hours; labelled drug combined with Example 3
[33] = system: H2122; experiment: Cancer cell panel, cell viability (resazurin): NSCLC, H2122; settings: 72 hours, labelled drug combined with Example 3
[34] = system: MDA-MB-157; experiment: Cancer cell panel, cell viability (resazurin): Breast, MDA-MB-157; settings: MDA-MB-157 (Breast), 72 hours; labelled drug combined with Example 3
Experimental: as §1, §2

[35] = system: ACHN; experiment: Cancer cell panel, cell viability (resazurin): Renal, ACHN; settings: 72 hours, labelled drug combined with Example 3
[36] = system: MCF7; experiment: Cancer cell panel, cell viability (resazurin): Breast, MCF7; settings: 72 hours, labelled drug combined with Example 3
Experimental: as §1, §2

[37] = system: WM-115; experiment: Cancer cell panel, cell viability (resazurin): Melanoma, WM-115; settings: WM-115 (Melanoma), 72 hours; labelled drug combined with Example 3
[38] = system: DLD-1; experiment: Cancer cell panel, cell viability (resazurin): Colon, DLD-1; settings: DLD-1 (Colon), 72 hours; labelled drug combined with Example 3

## CCN(CC)CCNC(=O)c1c(C)[nH]c(/C=C2\C(=O)Nc3ccc(F)cc32)c1C [Sunitinib, sunitinib]
[1]
  synergy, additivity or antagonism of the combination of Example 3 with the anti-cancer drug: + + (Slight synergy relative to each agent alone (CI = 0.75-0.9 by Bliss Independence Model))
[2]
  synergy, additivity or antagonism of the combination of Example 3 with the anti-cancer drug: + + + (Synergy relative to each agent alone (CI = 0.4-0.74 by Bliss Independence Model))
[3]
  synergy, additivity or antagonism of the combination of Example 3 with the anti-cancer drug: + + (Slight synergy relative to each agent alone (CI = 0.75-0.9 by Bliss Independence Model))
[4]
  synergy, additivity or antagonism of the combination of Example 3 with the anti-cancer drug: − − (Antagonistic relative to each agent alone (CI = 1.2-1.49 by Highest Single Agent Model))
[5]
  synergy, additivity or antagonism of the combination of Example 3 with the anti-cancer drug: + + + + (Strong synergy relative to each agent alone (CI < 0.4 by Bliss Independence Model))
[6]
  synergy, additivity or antagonism of the combination of Example 3 with the anti-cancer drug: + + (Slight synergy relative to each agent alone (CI = 0.75-0.9 by Bliss Independence Model))
[7]
  synergy, additivity or antagonism of the combination of Example 3 with the anti-cancer drug: + + (Slight synergy relative to each agent alone (CI = 0.75-0.9 by Bliss Independence Model))
[8]
  synergy, additivity or antagonism of the combination of Example 3 with the anti-cancer drug: + + + (Synergy relative to each agent alone (CI = 0.4-0.74 by Bliss Independence Model))
[9]
  synergy, additivity or antagonism of the combination of Example 3 with the anti-cancer drug: + (Additive relative to each agent alone (CI = 0.9-1 by Bliss Independence Model and <0.9 by Highest Single Agent Model))
[10]
  synergy, additivity or antagonism of the combination of Example 3 with the anti-cancer drug: + + (Slight synergy relative to each agent alone (CI = 0.75-0.9 by Bliss Independence Model))
[11]
  synergy, additivity or antagonism of the combination of Example 3 with the anti-cancer drug: + + (Slight synergy relative to each agent alone (CI = 0.75-0.9 by Bliss Independence Model))
[12]
  synergy, additivity or antagonism of the combination of Example 3 with the anti-cancer drug: + + + + (Strong synergy relative to each agent alone (CI < 0.4 by Bliss Independence Model))
[13]
  synergy, additivity or antagonism of the combination of Example 3 with the anti-cancer drug: + (Additive relative to each agent alone (CI = 0.9-1 by Bliss Independence Model and <0.9 by Highest Single Agent Model))
[14]
  synergy, additivity or antagonism of the combination of Example 3 with the anti-cancer drug: + + + (Synergy relative to each agent alone (CI = 0.4-0.74 by Bliss Independence Model))
[15]
  synergy, additivity or antagonism of the combination of Example 3 with the anti-cancer drug: + (Additive relative to each agent alone (CI = 0.9-1 by Bliss Independence Model and <0.9 by Highest Single Agent Model))
[16]
  synergy, additivity or antagonism of the combination of Example 3 with the anti-cancer drug: + (Additive relative to each agent alone (CI = 0.9-1 by Bliss Independence Model and <0.9 by Highest Single Agent Model))
[17]
  synergy, additivity or antagonism of the combination of Example 3 with the anti-cancer drug: + + (Slight synergy relative to each agent alone (CI = 0.75-0.9 by Bliss Independence Model))
[18]
  synergy, additivity or antagonism of the combination of Example 3 with the anti-cancer drug: + (Additive relative to each agent alone (CI = 0.9-1 by Bliss Independence Model and <0.9 by Highest Single Agent Model))
[19]
  synergy, additivity or antagonism of the combination of Example 3 with the anti-cancer drug: + (Additive relative to each agent alone (CI = 0.9-1 by Bliss Independence Model and <0.9 by Highest Single Agent Model))
[20]
  synergy, additivity or antagonism of the combination of Example 3 with the anti-cancer drug: + + + (Synergy relative to each agent alone (CI = 0.4-0.74 by Bliss Independence Model))
[21]
  synergy, additivity or antagonism of the combination of Example 3 with the anti-cancer drug: + + (Slight synergy relative to each agent alone (CI = 0.75-0.9 by Bliss Independence Model))
[22]
  synergy, additivity or antagonism of the combination of Example 3 with the anti-cancer drug: + (Additive relative to each agent alone (CI = 0.9-1 by Bliss Independence Model and <0.9 by Highest Single Agent Model))
[23]
  synergy, additivity or antagonism of the combination of Example 3 with the anti-cancer drug: + + (Slight synergy relative to each agent alone (CI = 0.75-0.9 by Bliss Independence Model))
[24]
  synergy, additivity or antagonism of the combination of Example 3 with the anti-cancer drug: + + + (Synergy relative to each agent alone (CI = 0.4-0.74 by Bliss Independence Model))
[25]
  synergy, additivity or antagonism of the combination of Example 3 with the anti-cancer drug: + (Additive relative to each agent alone (CI = 0.9-1 by Bliss Independence Model and <0.9 by Highest Single Agent Model))
[26]
  synergy, additivity or antagonism of the combination of Example 3 with the anti-cancer drug: + + + (Synergy relative to each agent alone (CI = 0.4-0.74 by Bliss Independence Model))
[27]
  synergy, additivity or antagonism of the combination of Example 3 with the anti-cancer drug: + (Additive relative to each agent alone (CI = 0.9-1 by Bliss Independence Model and <0.9 by Highest Single Agent Model))
[28]
  synergy, additivity or antagonism of the combination of Example 3 with the anti-cancer drug: + + (Slight synergy relative to each agent alone (CI = 0.75-0.9 by Bliss Independence Model))
[29]
  synergy, additivity or antagonism of the combination of Example 3 with the anti-cancer drug: + + (Slight synergy relative to each agent alone (CI = 0.75-0.9 by Bliss Independence Model))
[30]
  synergy, additivity or antagonism of the combination of Example 3 with the anti-cancer drug: + (Additive relative to each agent alone (CI = 0.9-1 by Bliss Independence Model and <0.9 by Highest Single Agent Model))
[31]
  synergy, additivity or antagonism of the combination of Example 3 with the anti-cancer drug: + + (Slight synergy relative to each agent alone (CI = 0.75-0.9 by Bliss Independence Model))
[32]
  synergy, additivity or antagonism of the combination of Example 3 with the anti-cancer drug: + + (Slight synergy relative to each agent alone (CI = 0.75-0.9 by Bliss Independence Model))
[33]
  synergy, additivity or antagonism of the combination of Example 3 with the anti-cancer drug: + + (Slight synergy relative to each agent alone (CI = 0.75-0.9 by Bliss Independence Model))
[34]
  synergy, additivity or antagonism of the combination of Example 3 with the anti-cancer drug: + + + (Synergy relative to each agent alone (CI = 0.4-0.74 by Bliss Independence Model))
[35]
  synergy, additivity or antagonism of the combination of Example 3 with the anti-cancer drug: + (Additive relative to each agent alone (CI = 0.9-1 by Bliss Independence Model and <0.9 by Highest Single Agent Model))
[36]
  synergy, additivity or antagonism of the combination of Example 3 with the anti-cancer drug: + (Additive relative to each agent alone (CI = 0.9-1 by Bliss Independence Model and <0.9 by Highest Single Agent Model))
[37]
  synergy, additivity or antagonism of the combination of Example 3 with the anti-cancer drug: + + (Slight synergy relative to each agent alone (CI = 0.75-0.9 by Bliss Independence Model))
[38]
  synergy, additivity or antagonism of the combination of Example 3 with the anti-cancer drug: + + (Slight synergy relative to each agent alone (CI = 0.75-0.9 by Bliss Independence Model))
